# Measurements reported in patent publication US5223526A, “Pyrazole carboxanilide fungicides and use” (Monsanto Company, priority 1992, dated 1993).
# What was measured:
# [1] = system: Botrytis cinerea; test: Eggplant grey mold; type: in vivo; design: scale not given here; conditions: inoculated 24 h later, rated after 3-4 days; for Disease Control Rating at 20 ppm: eggplant sprayed with 20 ppm; for Disease Control Rating at 100 ppm: eggplant sprayed with 100 ppm; for Disease Control Rating at 500 ppm: eggplant sprayed with 500 ppm
# Method in brief: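 Protective test: compound formulations (2:3 acetone:water, 0.5% Tween 20; 500, 100 or 20 ppm) sprayed on 14-18-day-old plants, with spore inoculum (4×10^6 spore/mL) applied a day later. Disease control rated on Botrytis lesions after 3-4 days at 23 °C and 100% humidity.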
# [2] = target: T1, succinate dehydrogenase (Botrytis cinerea, UniProt A0A384J5E4+A0A384J8V8+A0A384JHJ5); test: Enzyme inhibition: succinate dehydrogenase activity in Botrytis cinerea mitochondria (DCPIP reduction); type: biochemical; conditions: concentration required to inhibit the rate of DCPIP reduction by 50%; Botrytis cinerea isolate Nick mitochondria; read-out: I50 (μM conc.)
# T1 construct: succinate-DCPIP reductase assay with KCN
# T1 sequence (A0A384J5E4 1-300): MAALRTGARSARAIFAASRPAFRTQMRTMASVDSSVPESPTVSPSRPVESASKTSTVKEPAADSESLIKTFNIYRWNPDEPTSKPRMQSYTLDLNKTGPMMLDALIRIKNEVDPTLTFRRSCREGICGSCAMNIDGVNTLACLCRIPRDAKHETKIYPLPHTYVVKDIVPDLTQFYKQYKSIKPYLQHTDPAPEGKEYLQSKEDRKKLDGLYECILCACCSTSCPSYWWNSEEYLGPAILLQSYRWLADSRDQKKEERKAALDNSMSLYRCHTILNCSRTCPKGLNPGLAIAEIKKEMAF
# T1 sequence (A0A384J8V8 1-189): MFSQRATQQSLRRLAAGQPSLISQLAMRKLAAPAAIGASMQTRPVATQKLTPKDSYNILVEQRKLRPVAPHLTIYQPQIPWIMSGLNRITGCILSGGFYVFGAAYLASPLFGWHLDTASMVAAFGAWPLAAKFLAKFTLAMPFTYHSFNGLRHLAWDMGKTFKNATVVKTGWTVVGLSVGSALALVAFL
# T1 sequence (A0A384JHJ5 1-192): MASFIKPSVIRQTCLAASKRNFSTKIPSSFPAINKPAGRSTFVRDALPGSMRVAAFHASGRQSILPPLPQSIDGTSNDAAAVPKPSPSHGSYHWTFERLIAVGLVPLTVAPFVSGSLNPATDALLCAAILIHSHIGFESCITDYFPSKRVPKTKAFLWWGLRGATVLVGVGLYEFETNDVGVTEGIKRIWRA
# T1 sequence (A0A384K456 1-647 partner): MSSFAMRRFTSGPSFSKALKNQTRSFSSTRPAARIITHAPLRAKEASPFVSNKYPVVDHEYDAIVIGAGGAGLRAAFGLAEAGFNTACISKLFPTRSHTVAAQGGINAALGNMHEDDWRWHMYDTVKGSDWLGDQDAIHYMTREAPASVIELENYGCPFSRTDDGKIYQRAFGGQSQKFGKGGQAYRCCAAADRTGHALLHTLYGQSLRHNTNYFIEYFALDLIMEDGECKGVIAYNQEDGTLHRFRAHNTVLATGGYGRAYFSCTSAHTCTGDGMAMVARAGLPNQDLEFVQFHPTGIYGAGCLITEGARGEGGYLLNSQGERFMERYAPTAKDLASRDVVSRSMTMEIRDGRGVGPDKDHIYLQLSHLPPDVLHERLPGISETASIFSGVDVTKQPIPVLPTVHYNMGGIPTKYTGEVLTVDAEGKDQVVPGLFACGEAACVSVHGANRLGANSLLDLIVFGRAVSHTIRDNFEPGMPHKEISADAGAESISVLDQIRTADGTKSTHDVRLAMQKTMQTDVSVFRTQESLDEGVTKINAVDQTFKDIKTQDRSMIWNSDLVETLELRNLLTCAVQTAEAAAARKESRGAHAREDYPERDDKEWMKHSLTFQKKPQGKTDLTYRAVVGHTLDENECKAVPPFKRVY
# Method in brief: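 Crude mitochondria from Botrytis cinerea isolate Nick mycelia, prepared by bead-beating and differential centrifugation, started reactions. SDH activity followed as DCPIP reduction at 600 nm in 50 mM K-phosphate pH 7.2 with 1 mM KCN, 45 μM DCPIP, 17 mM succinate, 1% acetone. I50 from semilog inhibition plots, corrected for succinate-free rates.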
# [3] = system: Rhizoctonia solani; test: Rice sheath blight; type: in vivo; design: scale not given here; conditions: inoculated two days later, rated after 7 days, average of five plants; for Disease Control Rating at 0.5 mg/mL: foliage and soil sprayed with 0.5 mg/mL; for Disease Control Rating at 0.02 mg/mL: foliage and soil sprayed with 0.02 mg/mL; for Disease Control Rating at 0.1 mg/mL: foliage and soil sprayed with 0.1 mg/mL
# Method in brief: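 Rice plants 11–15 days old had foliage and soil sprayed with 0.5, 0.1 or 0.02 mg/mL Compound A in water/acetone/Tween 20, then kept in flooded trays. Two days later, rice-grain Rhizoctonia solani inoculum went to plant bases; disease control scored versus untreated after 7 days at 25 °C, high humidity, averaging five plants.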
# [4] = system: Botrytis cinerea; test: Vine grey mold (grape berries); type: in vivo; conditions: average of six berries, 7-10 days; for pest or weed control at 50 ppm: grape berries treated with 50 ppm, read-out: % DISEASE CONTROL 50 ppm; for pest or weed control at 200 ppm: grape berries treated with 200 ppm, read-out: % DISEASE CONTROL 200 ppm
# Method in brief: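 Preventive berry test: compound at 50 or 200 ppm (acetone/water, 0.05% Tween 20) applied one day before inoculation with 10^6 spores/mL Botrytis conidia. After 7-10 days at 20 °C under 12 h light, infected surface area rated; disease control expressed as percent reduction from control mean; repeated-test values averaged.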
SMILES,Disease Control Rating at 20 ppm [1],Disease Control Rating at 100 ppm [1],Disease Control Rating at 500 ppm [1],IC50 [2],Disease Control Rating at 0.5 mg/mL [3],pest or weed control at 50 ppm [4],pest or weed control at 200 ppm [4],Disease Control Rating at 0.02 mg/mL [3],Disease Control Rating at 0.1 mg/mL [3]
"Cn1cc(C(=O)Nc2ccc(F)cc2C2CCCCC2)c(C(F)(F)F)n1 [Example 12, 1H-pyrazole-4 carboxamide, N-(2-cyclohexyl-4-fluorophenyl)-1-methyl-3-(trifluoromethyl)-]",1,1,3,0.0089 µM,2,58%,59%,,
"Cn1cc(C(=O)Nc2ccccc2O[C@H]2CC[C@H](C)CC2)c(C(F)(F)F)n1 [Example 73, 1H-pyrazole-4-carboxamide, 1-methyl-N-[2-[(4-methylcyclohexyl)oxy]phenyl]-3-(trifluoromethyl)-, trans-]",,,0,0.0076 µM,2,8%,0%,,
"Cc1nn(C)cc1C(=O)Nc1ccccc1C1CCCC1 [Example 6, 1H-pyrazole-4-carboxamide, N-(2-cyclopentylphenyl)-1,3-dimethyl-]",,,1,0.25 µM,1,0%,20%,0,0
"Cn1cc(C(=O)Nc2ccccc2C2=CCCCCCC2)c(C(F)(F)F)n1 [Example 120, 1H-pyrazole-4-carboxamide, N-[2-(1-cycloocten-1-yl)phenyl]-1-methyl-3-(trifluoromethyl)-]",0,0,2,0.0041 µM,3,60%,82%,,
"Cn1cc(C(=O)Nc2ccccc2C2CCCC2)c(C(F)F)n1 [Example 7, 1H-pyrazole-4-carboxamide, N-(2-cyclopentylphenyl)-3-(difluoromethyl)-1-methyl-]",,,0,0.0072 µM,1,72%,86%,,
"Cn1cc(C(=O)Nc2ccccc2C2=CCCCC2)c(C(F)F)n1 [Example 109, 1H-pyrazole-4-carboxamide, N-[2-(1-cyclohexen-1-yl)phenyl]-3-(difluoromethyl)-1-methyl-]",,,0,0.0072 µM,3,100%,100%,0,1
"Cc1c(C(=O)Nc2ccccc2C2CCCCCC2)c(C(F)(F)F)nn1C [Example 99, 1H-pyrazole-4-carboxamide, N-(2-cycloheptylphenyl)-1,5-dimethyl-3-(trifluoromethyl)-]",,,1,0.065 µM,3,27%,53%,2,3
"Cc1nn(C)cc1C(=O)Nc1ccccc1C1CCCCCCC1 [Example 41, 1H-pyrazole-4-carboxamide, N-(2-cyclooctylphenyl)-1,3-dimethyl-]",0,0,3,0.021 µM,3,34%,37%,1,3
"Cc1nn(C)c(F)c1C(=O)Nc1ccccc1C1CCCCCC1 [Example 113, 1H-pyrazole-4-carboxamide, N-(2-cycloheptylphenyl)-5-fluoro-1,3-dimethyl-]",1,1,3,0.013 µM,3,28%,60%,3,3
